Test results taken from paper PMC8977034, “Amphipathic dendritic poly-peptides carrier to deliver antisense oligonucleotides against multi-drug resistant bacteria in vitro and in vivo” (Journal of Nanobiotechnology, 2022).

Experiments:
[1] = test system: E. coli, ESBLs-E. coli, S. aureus and MRSA; assay: Delivery efficiency by flow cytometry, tested strains together; type: cell-based; conditions: FAM-labeled, 1 h, 37 °C, flow cytometry (Fig. S9, S10)
Protocol: To measure the delivery efficiency, FAM-labeled DP-AD were added to bacterial cultures (approximately 5 × 10^6 CFU in 300 μl M–H broth) and incubated at 37 °C for 1 h away from light. The bacterial solutions were centrifuged at 2500 g at 4 °C for 5 min and washed twice with phosphate buffered saline (PBS) before analyzing them using the BL1 (green) channel in flow cytometry (Novocyte, Acer, USA). Data were analyzed using Flowjo software (version 10.0.7, Tree Star, Ashland, OR, USA). Free FAM-labeled ASOs and LF2000-NPs were used as the negative and positive control, respectively.
To measure the delivery rate of DP-AD7 in different types of bacteria, the bacteria (approximately 5 × 10^6 CFU in 300 μl M–H broth) were incubated with FAM-labeled DP-AD7 for 5, 10, 30 or 60 min at 37 °C or at 4 °C for 60 min in dark, then the bacterial solutions were processed, measured and analyzed as described above.

[2] = test system: ESBLs-E. coli; assay: Survival assay in mouse sepsis model; type: in vivo, male Balb/c mice; conditions: text 1.5 mg kg^−1, methods and Fig. 5 legend 4 mg/kg; i.p. at 0.5 and 6 h after infection; n = 10
Protocol: Male Balb/c mice (6–8 weeks old and weighing 18–22 g) were used in this experiment. The experimental and animal care procedures were approved by the Animal Care and Use Committee of Fourth Military Medical University. All methods were carried out strictly in accordance with the approved guidelines. 4 × 10^5 CFU ESBLs-E. coli in 400 μl M–H broth were administrated intraperitoneally into the mice to construct a sepsis model. Then, the mice were randomly divided to ten groups, which were administered intraperitoneally with 400 μL solutions containing 0.5 (based on ASOs), 1 or 1.5 mg kg^−1 DP-AD7anti-acpP and the counterpart DP-AD7mismatch, 1.5 mg kg^−1 L-DP-AD7anti-acpP, 1.5 mg kg^−1 LF2000-NPsanti-acpP, 4 mg kg^−1 ceftazidime or PBS at 0.5 and 6 h after infection. The surviving mice in each group were monitored every 6 h for the first day, afterwards, monitored every 12 h for 7 days day after infection, and the survival ratio was analyzed by Kaplan–Meier estimator.

[3] = test system: ESBLs-E. coli; assay: Bacterial load (CFU) in organs of septic mice; type: in vivo, male Balb/c mice; conditions: text 1.5 mg kg^−1, methods 4 mg kg^−1; ten hours after infection; mean ± SE
Protocol: Two mice in each group were sacrificed 10 h after infection to study the bacterial clearance. The liver and kidney were harvested aseptically, one kidney and one lobe of liver of each mouse were weighed, and homogenized in 500 μl sterile saline solution, then 50 μl homogenate sample of each mice was performed serial tenfold dilutions to a 10^–5 dilution. Carefully spread 100 μL of each dilution onto a M–H agarose plate using a glass spreader. Incubate plates at 37 °C overnight and calculate the bacterial load. Colony counts were expressed as CFU g^−1 of tissue.

Compound	Capacity to deliver ASOs into bacteria [1]	Survival rate of septic mice, ceftazidime [2]	Average bacterial load in the kidney, ceftazidime [3]
Ac-LWALWK(Ac)K(Ac)K(Ac)RRHRRRHR [L-DPP, linear counterpart of DPP7, amphipathic, 9 positive charge and 2 His residues]	failure	–	–
CC(C)(O/N=C(\C(=O)N[C@@H]1C(=O)N2C(C(=O)[O-])=C(C[n+]3ccccc3)CS[C@H]12)c1csc(N)n1)C(=O)O [ceftazidime]	–	30%	8.41 ± 1.60 × 10^7 CFU g^−1
